Laboratory results from paper PMC9951978, “Comparative Study of Different H2S Donors as Vasodilators and Attenuators of Superoxide-Induced Endothelial Damage” (Antioxidants, 2023).

What was measured:
[1] = Stability at pH 7.4 in PBS in the presence of L-cysteine (50x); assay type: physicochemical; conditions: pH 7.4, 37 °C; for half-life at 100 µM: phosphate buffer (PBS) with L-cysteine, read-out: t1/2, buffer + cysteine (50×) (converted)
Method: (§1) The compounds were solubilized at a concentration of 100 µM (starting from a 10 mM stock solution in DMSO) in 0.1 M PBS, pH = 7.4, in the absence or presence of 5 mM L-cysteine (50×). The solutions were incubated at 37.0 ± 0.5 °C, and at appropriate time intervals, aliquots were analyzed by RP-HPLC as described below. All experiments were performed at least in triplicate.
(§2) RP-HPLC analysis was performed with an HP 1100 chromatograph system (Agilent Technologies, Palo Alto, CA, USA) equipped with an injector (Rheodyne, Cotati, CA, USA), a quaternary pump (model G1311A), a membrane degasser (model G1379A), and a diode-array detector (DAD, model G1315B) integrated into the HP1100 system. The data were processed using an HP ChemStation system (Agilent Technologies, Palo Alto, CA, USA). A stationary phase Tracer Excel 120 ODSB (25 × 0.46, 5 μm; Tecnokroma (Teknokroma Analytical S.A., Barcelona, Spain)) was used. The mobile phase consisted of acetonitrile 0.1% HCOOH/water 0.1% HCOOH at a flow rate of 1.0 mL/min, with gradient elution: 35% acetonitrile up to 5 min, 35 to 80% acetonitrile between 5 and 10 min, 80% acetonitrile between 10 and 20 min. The injection volume was 20 μL. The column effluent was monitored for each compound at the wavelength of maximum absorption (referenced against a 700 nm wavelength). Using this RP-HPLC procedure, we separated the compounds from any degradation products and we quantified the compounds during incubation time. The quantification was performed using a calibration curve obtained with standard solutions of compounds chromatographed under the same experimental conditions, in a concentration range of 1–100 μM (r^2 > 0.99).

[2] = Stability at pH 7.4 in phosphate buffer (PBS); assay type: physicochemical; conditions: PBS pH 7.4, 37 °C
Method: as §1, §2

[3] = Stability of the compounds in human serum (RP-HPLC); assay type: in vitro ADME; conditions: 37 °C; for % Compd ± SE: 200 µM; for half-life at 200 µM: male, read-out: Half-life (t1/2)
Method: A solution of each compound (10 mM) in DMSO was added to human serum (obtained by filtration and sterilization from AB, Sigma-Aldrich (Merck KGaA, 64,271 Darmstadt, Germany) male human blood) and was preheated to 37 °C to obtain a final concentration of 200 µM. The resulting solution was incubated at 37.0 ± 0.5 °C, and aliquots of 300 µL were taken at appropriate time intervals and added to 300 µL of CH3CN acidified with 0.1% formic acid in order to deproteinize the serum. The mixture was centrifuged for 10 min at 2150× g, and the clear supernatant was filtered (PTFE filters, 0.45 µm, VWR (VWR International S.r.l., Milano, Italy)) and analyzed by RP-HPLC as described below. All experiments were performed at least in triplicate.
as §2

rat aorta strips = experiment: Vasodilating activity on endothelium-denuded rat aorta strips precontracted with KCl; assay type: cell-based; conditions: for activation at 100 µM / activation at 300 µM / activation at 10 µM: rat aorta strips precontracted with KCl, read-out: % Vasodilation at the maximum concentration testable; for Effect of glibenclamide on the concentration-response curve / EC50: presence vs absence of K+ATP channel blocker glibenclamide; for EC50: endothelium-denuded rat aorta strips precontracted with 25 mM KCl, read-out: Vasodilating activity EC50 ± SEM
Method: Vasodilating activity was studied on the thoracic aortas from male Wistar rats (180–200 g), following a protocol published elsewhere. All synthesized compounds were dissolved in DMSO. The addition of the vehicle had no perceptible consequence on contraction level. Results were expressed as EC50 ± SE (μM), n = 3–8.
The vasodilator action of H2S-releasing compounds was evaluated on endothelium-denuded rat aorta strips precontracted with KCl. The results reported in Table 1 show the heterogeneous behavior of the tested compounds.

[4] = tested on: endothelium-intact rat aortic rings; experiment: Vasoprotection: acetylcholine-induced relaxation in rat aortic rings with endothelium impairment induced by pyrogallol; assay type: cell-based
Method: The experiments were performed on rat thoracic aortic rings from male Wistar rats (180–200 g), prepared as previously described. The effect of H2S donor or catechin, taken as a reference, on acetylcholine-induced relaxation in aortic rings pre-incubated with pyrogallol was studied as published elsewhere, with some modifications. Aortic rings were incubated with diethyldithiocarbamate (DETCA) 10 mM for 1 h to irreversibly inactivate endogenous superoxide dismutase (SOD). Then, the aortic rings were washed and randomly divided into four groups: (1) control: endothelium-intact rings incubated in Krebs’ solution with vehicle only (DMSO); (2) H2S donor: endothelium-intact rings incubated with H2S donor (100 μM) or reference catechin (10 mM) for 30 min; (3) pyrogallol: endothelium-intact rings incubated with 500 μM pyrogallol for 15 min; (4) H2S donor plus pyrogallol: endothelium-intact rings incubated with H2S donor (100 μM) or reference catechin (10 mM) for 30 min and 500 μM pyrogallol for the last 15 min. After the incubation time, the rings were washed, 1 μM phenylephrine was added to the organ baths, then acetylcholine (10^−9–l0^−5 M) was added cumulatively. Tension was measured and calculated as the percentage of contraction in response to phenylephrine (1 μM). Data were expressed as mean ± SEM, n = 3–9.
Figure 3 Effect of 6 (100 μM) on acetylcholine-induced vasodilation in endothelium-intact rat aortic rings. […] Statistical analyses were made using Student’s t-test for unpaired data. ** p < 0.01 vs. the pyrogallol group.

Compound | Stability (% compound ± SE), buffer + cysteine (50×) ([1]; 1 h) | Stability (% compound ± SE), buffer + cysteine (50×) ([1]; 24 h) | Stability (% compound ± SE), buffer ([2]; 24 h) | % Compd ± SE ([3]; 1 h) | % Compd ± SE ([3]; 4 h) | % Compd ± SE ([3]; 24 h) | half-life at 200 µM [3] | other results
O=C(O)COc1ccc(-c2cc(=S)ss2)cc1 [Compound 13] | 99.0 ± 0.4% | 81.9 ± 0.1% | 101.8 ± 1.4% | 99.2 ± 0.1% | 96.0 ± 0.8% | 94.3 ± 2% |  | Stability (% compound ± SE), buffer + cysteine (50×) ([1]; 6 h): 96.6 ± 0.1%; activation at 100 µM (rat aorta strips; 100 μM): 39%
CCOC(=O)c1ccc(-c2cssc2=S)cc1 [Compound 12] |  |  |  |  |  |  | 2.7 h | Effect of glibenclamide on the concentration-response curve / EC50 (rat aorta strips): almost the same
CC(=O)NSC(=O)c1ccccc1 [Compound 8] |  |  |  |  |  |  | < 0.5 h | Ach-induced maximum relaxation ([4]; H2S donor 100 μM without exposure to pyrogallol): did not reduce Ach-induced maximum relaxation; Ach-induced maximal relaxation ([4]; rings incubated with H2S donor 100 μM 30 min and 500 μM pyrogallol last 15 min): not able to reduce pyrogallol-induced endothelium impairment; Effect of glibenclamide on the concentration-response curve / EC50 (rat aorta strips): almost the same
C=CCSSCC(NC(C)=O)C(=O)O (stereo not shown) [Compound 5] |  |  | 87.7 ± 1.0% | 64 ± 1% | 39 ± 1% | 16 ± 1% |  | half-life at 100 µM [1]: ~0.0833 h; activation at 300 µM (rat aorta strips): 16%
Oc1cccc(O)c1O [pyrogallol, reference compound] |  |  |  |  |  |  |  | Maximum Ach-induced relaxation ([4]; rings incubated with 500 μM pyrogallol alone for 15 min (control 80 ± 3%)): 15 ± 3%
O=C(O)CCC(=O)NSC(=O)c1ccccc1 [Compound 7] |  |  | 57.1 ± 3.3% | 19.8 ± 0.7% | 0% | 0% |  | half-life at 100 µM [1]: ~1.3 h; Stability (% compound ± SE), buffer ([2]; 6 h): 91.6 ± 1.1%; activation at 300 µM (rat aorta strips): 12%
O=C(O)c1ccc(-c2cssc2=S)cc1 [Compound 11] | 99.0 ± 0.3% | 37.6 ± 0.1% | 94.8 ± 3.2% | 96.3 ± 0.2% | 90.0 ± 0.9% | 53 ± 2% |  | Stability (% compound ± SE), buffer + cysteine (50×) ([1]; 6 h): 82.6 ± 0.2%; activation at 100 µM (rat aorta strips; 100 μM): 42%
C=CCSSCCC(=O)OCC [Compound 4] |  |  |  |  |  |  | < 0.5 h | % Vasodilation at the maximum concentration testable, + Glib. 10 μM (rat aorta strips; 100 μM, in the presence of glibenclamide 10 μM): [44 ± 3] ^2%; EC50 (rat aorta strips): 64 ± 6 µM; Effect of glibenclamide on the concentration-response curve / EC50 (rat aorta strips): significantly rightward shifted
NC(=S)c1ccc(C(=O)O)cc1 [Compound 17] | 97.6 ± 0.2% | 25.0 ± 0.6% | 82.3 ± 0.4% | 91.6 ± 0.3% | 85.0 ± 0.1% | 64.7 ± 0.2% |  | Stability (% compound ± SE), buffer + cysteine (50×) ([1]; 6 h): 84.1 ± 0.2%; activation at 300 µM (rat aorta strips): 27%
C=CCSSCCC(=O)O [Compound 3] |  |  | 101.0 ± 1.0% | 80.0 ± 1.0% | 62 ± 2% | 44 ± 1% |  | half-life at 100 µM [1]: ~0.167 h
COC(=O)c1ccc(-c2ssc(=S)c2-c2ccccc2)cc1 [Compound 10] |  |  |  |  |  |  | 2.4 h | activation at 10 µM (rat aorta strips): 29%
O=C(O)c1csc(=S)s1 [Compound 15] | 100.0 ± 0.2% | 96.6 ± 1.0% | 100.0 ± 1.0% | 99.2 ± 0.1% | 95 ± 1% | 94.8 ± 2% |  | activation at 300 µM (rat aorta strips): 17%
C=CCSCC(NC(C)=O)C(=O)O (stereo not shown) [Compound 1] | 87.3 ± 1.0% | 69.5 ± 1.0% | 91.5 ± 1.0% | 88 ± 1% | 35 ± 1% | 8.0 ± 0.5% |  | Stability (% compound ± SE), buffer + cysteine (50×) ([1]; 6 h): 72.5 ± 1.0%
COC(=O)c1csc(=S)s1 [Compound 16] |  |  |  |  |  |  | 1.5 h | activation at 100 µM (rat aorta strips; 100 μM): 25%
O=C(O)c1ccc(-c2ssc(=S)c2-c2ccccc2)cc1 [Compound 9] | 98.6 ± 0.3% | 78.1 ± 0.3% | 92.6 ± 0.8% | 94.2 ± 0.2% | 90.0 ± 0.8% | 83 ± 1% |  | Stability (% compound ± SE), buffer + cysteine (50×) ([1]; 6 h): 94.9 ± 0.7%; EC50 (rat aorta strips): 78 ± 7 µM; Effect of glibenclamide on the concentration-response curve / EC50 (rat aorta strips): significantly rightward shifted
CCOC(=O)COc1ccc(-c2cc(=S)ss2)cc1 [Compound 14] |  |  |  |  |  |  | 0.5 h | activation at 10 µM (rat aorta strips): 37%
COC(=O)c1ccc(C(N)=S)cc1 [Compound 18] |  |  |  |  |  |  | 3.7 h | activation at 10 µM (rat aorta strips): 33%
O.Oc1cc(O)c2c(c1)O[C@H](c1ccc(O)c(O)c1)[C@@H](O)C2 [catechin, reference compound] |  |  |  |  |  |  |  | Ach-induced maximal relaxation ([4]; rings incubated with catechin 10 mM and 500 μM pyrogallol): 77 ± 3%
